Results taken from patent US20180170904A1, “PYRIDIN-3-YL ACETIC ACID DERIVATIVES AS INHIBITORS OF HUMAN IMMUNODEFICIENCY VIRUS REPLICATION” (priority 2015, published 2018).
Like-named read-outs stand apart in the source and are kept apart here.

Tested on: NL-RLuc virus (recombinant NL4-3 proviral clone with Renilla Luciferase gene)
Test: Inhibition of HIV replication (NL-RLuc reporter virus in MT-2 cells)
Format: cell-based
Details: Renilla, NL43, 120 h
From the text: Inhibition of HIV replication: A recombinant NL-RLuc proviral clone was constructed in which a section of the nef gene from NL4-3 was replaced with the Renilla Luciferase gene. This virus is fully infectious and can undergo multiple cycles of replication in cell culture. In addition, the luciferous reporter provides a simple and easy method for quantitating the extent of virus growth and consequently, the antiviral activity of test compounds. The plasmid pNLRLuc contains the proviral NL-Rluc DNA cloned into pUC18 at the PvuII site. The NL-RLuc virus was prepared by transfection of 293T cells with the plasmid pNLRLuc. Transfections were performed using the LipofectAMINE PLUS kit from Invitrogen (Carlsbad, Calif.) according to the manufacturer and the virus generated was titered in MT-2 cells. For susceptibility analyses, the titrated virus was used to infect MT-2 cells in the presence of compound, and after 5 days of incubation, cells were processed and quantitated for virus growth by the amount of expressed luciferase. Assay media was RPMI 1640 supplemented with 10% heat inactivated fetal bovine serum (FBS), 100 units/ml penicillin G/100 units/ml streptomycin, 10 mM HEPES buffer pH 7.55 and 2 mM L-glutamine. The results from at least 2 experiments were used to calculate the EC50 values. Luciferase was quantitated using the Dual Luciferase kit from Promega (Madison, Wis.). Susceptibility of viruses to compounds was determined by incubation in the presence of serial dilutions of the compound. The 50% effective concentration (EC50) was calculated by using the exponential form of the median effect equation where (Fa)=1/[1+(ED50/drug conc.)^m] (Johnson V A, Byington R T. Infectivity Assay. In Techniques in HIV Research. ed. Aldovini A, Walker B D. 71-76. New York: Stockton Press.1990). Activity equal to A refers to a compound having an EC50≤100 nM, while B and C denote compounds having an EC50 between 100 nM and 1 uM (B) or >1 uM (C).

| SMILES | EC50 (read-out: Activity) [µM] | EC50 (read-out: EC50 μM) [µM] |
| --- | --- | --- |
| Cc1cc(CNC(=O)c2ccc(-c3c(C)nc(C)c([C@H](OC(C)(C)C)C(=O)O)c3N3CCC(C)(C)CC3)cc2)ccc1F [Example 1, (S)-2-(tert-Butoxy)-2-(4-(4,4-dimethylpiperidin-1-yl)-5-(4-((4-fluoro-3-methylbenzyl)carbamoyl)phenyl)-2,6-dimethylpyridin-3-yl)acetic acid] | < 0.1 | 0.007 |
| Cc1nc(C)c([C@H](OC(C)(C)C)C(=O)O)c(N2CCC(C)(C)CC2)c1-c1ccc(C(=O)NCCc2ccc(F)cc2)cc1 [Example 2, (S)-2-(tert-Butoxy)-2-(4-(4,4-dimethylpiperidin-1-yl)-5-(4-((4-fluorophenethyl)carbamoyl)phenyl)-2,6-dimethylpyridin-3-yl)acetic acid] | < 0.1 |  |
| Cc1nc(C)c([C@H](OC(C)(C)C)C(=O)O)c(N2CCC(C)(C)CC2)c1-c1ccc(-c2ncc(Cc3ccc(F)cc3)s2)cc1 [Example 3, (S)-2-(tert-Butoxy)-2-(4-(4,4-dimethylpiperidin-1-yl)-5-(4-(5-(4-fluorobenzyl)thiazol-2-yl)phenyl)-2,6-dimethylpyridin-3-yl)acetic acid] | < 0.1 |  |
| Cc1nc(C)c([C@H](OC(C)(C)C)C(=O)O)c(N2CCC(C)(C)CC2)c1-c1ccc(-c2ncc(Cc3ccc(F)cc3)o2)cc1 [Example 4, (S)-2-(tert-Butoxy)-2-(4-(4,4-dimethylpiperidin-1-yl)-5-(4-(5-(4-fluorobenzyl)oxazol-2-yl)phenyl)-2,6-dimethylpyridin-3-yl)acetic acid] | < 0.1 |  |
| Cc1nc(C)c([C@H](OC(C)(C)C)C(=O)O)c(N2CCC(C)(C)CC2)c1-c1ccc(-c2ncc(-c3ccc(F)cc3)o2)cc1 [Example 5, (S)-2-(tert-Butoxy)-2-(4-(4,4-dimethylpiperidin-1-yl)-5-(4-(5-(4-fluorophenyl)oxazol-2-yl)phenyl)-2,6-dimethylpyridin-3-yl)acetic acid] | < 0.1 |  |
| Cc1nc(C)c([C@H](OC(C)(C)C)C(=O)O)c(N2CCC(C)(C)CC2)c1-c1ccc(-c2ncc(-c3ccc(F)cc3)s2)cc1 [Example 6, (S)-2-(tert-Butoxy)-2-(4-(4,4-dimethylpiperidin-1-yl)-5-(4-(5-(4-fluorophenyl)thiazol-2-yl)phenyl)-2,6-dimethylpyridin-3-yl)acetic acid] | < 0.1 |  |
| Cc1nc(C)c([C@H](OC(C)(C)C)C(=O)O)c(N2CCC(C)(C)CC2)c1-c1ccccc1 [Example 7, (S)-2-(tert-Butoxy)-2-(4-(4,4-dimethylpiperidin-1-yl)-2,6-dimethyl-5-phenylpyridin-3-yl)acetic acid] | < 0.1 |  |
| Cc1nc(C)c([C@H](OC(C)(C)C)C(=O)O)c(N2CCC(C)(C)CC2)c1-c1ccc(-c2ccccc2)cc1 [Example 8, (S)-2-(5-([1,1′-Biphenyl]-4-yl)-4-(4,4-dimethylpiperidin-1-yl)-2,6-dimethylpyridin-3-yl)-2-(tert-butoxy)acetic acid] | < 0.1 | 0.031 |
| CCCOc1ccc(-c2ccc(-c3c(C)nc(C)c([C@H](OC(C)(C)C)C(=O)O)c3N3CCC(C)(C)CC3)cc2)cc1 [Example 9, (S)-2-(tert-Butoxy)-2-(4-(4,4-dimethylpiperidin-1-yl)-2,6-dimethyl-5-(4′-propoxy-[1,1′-biphenyl]-4-yl)pyridin-3-yl)acetic acid] | < 0.1 |  |
| Cc1nc(C)c([C@H](OC(C)(C)C)C(=O)O)c(N2CCC(C)(C)CC2)c1-c1ccc(-c2ccc(OC(C)C)cc2)cc1 [Example 10, (S)-2-(tert-Butoxy)-2-(4-(4,4-dimethylpiperidin-1-yl)-5-(4′-isopropoxy-[1,1′-biphenyl]-4-yl)-2,6-dimethylpyridin-3-yl)acetic acid] | < 0.1 |  |
| Cc1nc(C)c([C@H](OC(C)(C)C)C(=O)O)c(N2CCC(C)(C)CC2)c1-c1ccc(-c2ccc(Cl)cc2)cc1 [Example 11, (S)-2-(tert-Butoxy)-2-(5-(4′-chloro-[1,1′-biphenyl]-4-yl)-4-(4,4-dimethylpiperidin-1-yl)-2,6-dimethylpyridin-3-yl)acetic acid] | 0.1 to 1 | 0.135 |
| CCc1ccc(-c2ccc(-c3c(C)nc(C)c([C@H](OC(C)(C)C)C(=O)O)c3N3CCC(C)(C)CC3)cc2)cc1 [Example 12, (S)-2-(tert-Butoxy)-2-(4-(4,4-dimethylpiperidin-1-yl)-5-(4′-ethyl-[1,1′-biphenyl]-4-yl)-2,6-dimethylpyridin-3-yl)acetic acid] | 0.1 to 1 |  |
| Cc1nc(C)c([C@H](OC(C)(C)C)C(=O)O)c(N2CCC(C)(C)CC2)c1-c1ccc(-c2ccccn2)cc1 [Example 13, (S)-2-(tert-butoxy)-2-(4-(4,4-dimethylpiperidin-1-yl)-2,6-dimethyl-5-(4-(pyridin-2-yl)phenyl)pyridin-3-yl)acetic acid] | < 0.1 |  |
| Cc1nc(C)c([C@H](OC(C)(C)C)C(=O)O)c(N2CCC(C)(C)CC2)c1-c1ccc(-c2ccccc2)c(F)c1 [Example 14, (S)-2-(tert-Butoxy)-2-(4-(4,4-dimethylpiperidin-1-yl)-5-(2-fluoro-[1,1′-biphenyl]-4-yl)-2,6-dimethylpyridin-3-yl)acetic acid] | < 0.1 |  |
| Cc1nc(C)c([C@H](OC(C)(C)C)C(=O)O)c(N2CCC(C)(C)CC2)c1-c1ccc(Cc2ccccc2)cc1 [Example 15, (S)-2-(5-(4-Benzylphenyl)-4-(4,4-dimethylpiperidin-1-yl)-2,6-dimethylpyridin-3-yl)-2-(tert-butoxy)acetic acid] | < 0.1 |  |
| COc1ccc(-c2ccc(-c3c(C)nc(C)c([C@H](OC(C)(C)C)C(=O)O)c3N3CCC(C)(C)CC3)cc2)cc1 [Example 16, (S)-2-(tert-Butoxy)-2-(4-(4,4-dimethylpiperidin-1-yl)-5-(4′-methoxy-[1,1′-biphenyl]-4-yl)-2,6-dimethylpyridin-3-yl)acetic acid] | < 0.1 |  |
| Cc1cccc(-c2ccc(-c3c(C)nc(C)c([C@H](OC(C)(C)C)C(=O)O)c3N3CCC(C)(C)CC3)cc2)c1 [Example 17, (S)-2-(tert-Butoxy)-2-(4-(4,4-dimethylpiperidin-1-yl)-2,6-dimethyl-5-(3′-methyl-[1,1′-biphenyl]-4-yl)pyridin-3-yl)acetic acid] | < 0.1 | 0.053 |
| Cc1nc(C)c([C@H](OC(C)(C)C)C(=O)O)c(N2CCC(C)(C)CC2)c1-c1ccc(-c2cccc3ccccc23)cc1 [Example 18, (S)-2-(tert-Butoxy)-2-(4-(4,4-dimethylpiperidin-1-yl)-2,6-dimethyl-5-(4-(naphthalen-1-yl)phenyl)pyridin-3-yl)acetic acid] | < 0.1 |  |
| Cc1ccc(-c2c(C)nc(C)c([C@H](OC(C)(C)C)C(=O)O)c2N2CCC(C)(C)CC2)cc1F [Example 19, (S)-2-(tert-Butoxy)-2-(4-(4,4-dimethylpiperidin-1-yl)-5-(3-fluoro-4-methylphenyl)-2,6-dimethylpyridin-3-yl)acetic acid] | < 0.1 |  |
| Cc1nc(C)c([C@H](OC(C)(C)C)C(=O)O)c(N2CCC(C)(C)CC2)c1-c1ccc(CC(C)C)cc1 [Example 20, (S)-2-(tert-Butoxy)-2-(4-(4,4-dimethylpiperidin-1-yl)-5-(4-isobutylphenyl)-2,6-dimethylpyridin-3-yl)acetic acid] | < 0.1 | 0.161 |
| COc1cccc(-c2ccc(-c3c(C)nc(C)c([C@H](OC(C)(C)C)C(=O)O)c3N3CCC(C)(C)CC3)cc2)c1 [Example 21, (S)-2-(tert-Butoxy)-2-(4-(4,4-dimethylpiperidin-1-yl)-5-(3′-methoxy-[1,1′-biphenyl]-4-yl)-2,6-dimethylpyridin-3-yl)acetic acid] | < 0.1 |  |
